Experiments:
[1] = molecular target: T1, human serum albumin (HSA) (Homo sapiens, UniProt P02768); assay: Excited-state fluorescence lifetime of HSA; assay type: binding
[2] = molecular target: T1, human serum albumin (HSA); assay: UV-vis absorption titration of HSA (Benesi–Hildebrand); assay type: binding; conditions: HSA 10 μM; for enhancement in absorbance of HSA at 280 nm: compound up to 7 μM; for Kd: UV-vis, phosphate buffer pH 7.4, 298 K, read-out: binding constant compound–HSA (Benesi–Hildebrand) (converted)
Experimental: To check the interactions between HSA and compounds, UV-vis absorption spectra of HSA (10 μM) were recorded in the absence and incremental additions of compounds 12 and 13 (7 μM). Noteworthy, enhancement in absorbance of HSA at 280 nm (57% for compound 12 and 51% for compound 13) on increasing concentrations of compounds indicated perturbations in the microenvironment of protein's chromophores as a result of interaction between HSA and compounds along with the development of new band at 348 nm (Fig. 4). Increasing the concentration of compounds also produces an enhancement in absorbance value at 348 nm. The binding constants for the compound–HSA system were calculated by Benesi–Hildebrand eqn (2)[32] as 1.75 × 10^5 M^−1 for compound 12 and 1.88 × 10^5 M^−1 for compound 13 (Fig. S57 ^†). These strong binding affinities are favorable for the adequate transportation of these compounds to their target sites.
To record the absorption spectra of HSA, a fixed amount of HSA (10 μM) was titrated with the increasing concentrations of compounds 12 and 13 (7 μM) in the phosphate buffer of pH 7.4 at 298 K. The phosphate buffer was used as a blank solution for baseline corrections. The absorption spectra were recorded in the range of 200–800 nm. […] To calculate the Kb value, the ratio of intercept to the slope was used as A0/(A − A0) versus 1/[compound] plots.

[3] = system: MCF7 (breast) human cancer cell line; assay: MTT cytotoxicity assay, MCF7; assay type: cell-based; conditions: Homo sapiens, MCF7, 48 h
Experimental: (§1) Human malignant cell lines, i.e., MCF7 (breast), HeLa (cervix), and A549 (lung), as well as non-cancerous human cell line Hek293 (kidney), were cultured using the Ham's media or DMEM having 10% FBS, […] streptomycin, 100 U ml^−1 penicillin, and 50 mM glutamine. For seeding of cells, 96 well plates were used, maintaining the density of […] cells per well with the help of DMEM as a media having 10% FBS cells. Then, seeded cells were incubated in an incubator having a 5% CO2 supply at 37 °C. Compounds were added to the wells at 1, 10, and 100 μM concentrations, and cells were incubated for 48 h at 37 °C and then added 10 μl of MTT to each well prepared from 5 mg ml^−1 stock solution using 1 × PBS buffer and were incubated for 4 h at 37 °C in the dark. DMSO (100 μl) was used to dissolve the formazan crystals. To determine the concentration of formazan, the crystal absorbance difference was recorded at 570 nm. The percentage of relative cell toxicity was calculated by using the following eqn (1):1 [drawing 1]

[4] = molecular target: T1, human serum albumin (HSA); assay: HSA fluorescence quenching (Stern–Volmer, modified Stern–Volmer, van't Hoff); assay type: binding; conditions: 308 K
[5] = molecular target: T1, human serum albumin (HSA); assay: Excited-state fluorescence lifetime of HSA; assay type: binding; conditions: compound 7 μM
Experimental: A fluorescence lifetime experiment was performed to discover the quenching mechanism of compounds 12 and 13 for interactions with HSA. The decay lifetime (τ) generally remains unaltered in ground state quenching while it gets changed in excited state quenching.[46,47] The fluorescence lifetime spectrum of HSA (7 μM) was performed upon increasing concentrations of compounds 12 and 13 (0–70 μM) (Fig. S65 ^†). […] Therefore, it can conclude that the fluorescence quenching of HSA by compounds 12 and 13 was characterized as a static quenching and thus formed a stable complex with HSA at the ground state.
Time-resolved fluorescence was recorded by taking a fixed amount of HSA (10 μM) with incremental additions of compounds (12 and 13) ([…]) by maintaining the ratio of HSA : compound = 1 : 0, 1 : 1, 1 : 5 and 1 : 10. The spectra were recorded at 345 nm emission wavelength in phosphate buffer of pH 7.4 at 298 K. To determine the average fluorescence lifetime (τ), the following eqn (7) was used.7 τ = ∑τiαiwhere τi and αi denote decay time and relative amplitude, respectively.

[6] = molecular target: human type IIa topoisomerase (Homo sapiens, UniProt P11388); assay: Relaxation assay of human topoisomerase IIa (supercoiled pHOT1 plasmid DNA, agarose gel); assay type: biochemical; conditions: compared with etoposide (Fig. S56)
Sequence of human type IIa topoisomerase (P11388 whole entry): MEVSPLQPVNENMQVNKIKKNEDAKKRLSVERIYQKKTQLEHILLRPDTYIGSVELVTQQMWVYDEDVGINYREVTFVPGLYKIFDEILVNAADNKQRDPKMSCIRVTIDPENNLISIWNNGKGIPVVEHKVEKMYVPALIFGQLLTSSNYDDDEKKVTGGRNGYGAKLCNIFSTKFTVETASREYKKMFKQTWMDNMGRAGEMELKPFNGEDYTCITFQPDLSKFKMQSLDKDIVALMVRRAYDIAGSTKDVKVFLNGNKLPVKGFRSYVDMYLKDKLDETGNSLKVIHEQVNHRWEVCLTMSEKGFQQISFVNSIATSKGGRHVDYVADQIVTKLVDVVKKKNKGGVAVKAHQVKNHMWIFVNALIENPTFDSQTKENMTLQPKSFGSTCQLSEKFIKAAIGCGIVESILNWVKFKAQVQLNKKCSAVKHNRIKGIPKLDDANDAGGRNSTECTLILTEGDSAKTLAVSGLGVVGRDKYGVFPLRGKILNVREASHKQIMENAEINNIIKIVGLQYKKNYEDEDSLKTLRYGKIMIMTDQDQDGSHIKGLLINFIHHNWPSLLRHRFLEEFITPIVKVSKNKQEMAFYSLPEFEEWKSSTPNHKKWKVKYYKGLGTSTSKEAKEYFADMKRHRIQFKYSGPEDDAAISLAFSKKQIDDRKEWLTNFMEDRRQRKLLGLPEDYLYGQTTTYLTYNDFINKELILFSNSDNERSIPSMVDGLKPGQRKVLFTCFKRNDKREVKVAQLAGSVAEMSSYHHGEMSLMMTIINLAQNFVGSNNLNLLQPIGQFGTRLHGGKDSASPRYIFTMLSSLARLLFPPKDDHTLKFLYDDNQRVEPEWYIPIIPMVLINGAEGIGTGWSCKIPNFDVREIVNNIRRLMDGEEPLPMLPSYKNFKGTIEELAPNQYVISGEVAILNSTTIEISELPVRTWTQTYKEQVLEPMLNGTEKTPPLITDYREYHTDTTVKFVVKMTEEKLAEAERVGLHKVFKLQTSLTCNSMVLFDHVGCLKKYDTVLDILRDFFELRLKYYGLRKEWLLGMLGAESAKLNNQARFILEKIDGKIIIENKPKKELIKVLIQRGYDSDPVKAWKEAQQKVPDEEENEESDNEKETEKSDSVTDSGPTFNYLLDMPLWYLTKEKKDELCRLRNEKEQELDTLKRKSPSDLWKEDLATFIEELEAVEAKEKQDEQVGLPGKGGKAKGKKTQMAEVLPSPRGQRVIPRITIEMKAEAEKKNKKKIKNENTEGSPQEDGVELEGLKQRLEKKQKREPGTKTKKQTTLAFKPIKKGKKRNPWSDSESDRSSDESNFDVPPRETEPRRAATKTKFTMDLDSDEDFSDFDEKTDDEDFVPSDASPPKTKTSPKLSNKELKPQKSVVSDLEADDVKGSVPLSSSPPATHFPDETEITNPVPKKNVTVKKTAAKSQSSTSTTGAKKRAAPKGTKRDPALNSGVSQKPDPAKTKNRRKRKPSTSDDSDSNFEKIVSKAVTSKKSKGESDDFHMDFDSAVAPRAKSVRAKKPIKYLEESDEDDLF
Experimental: The concentrations 0.1, 0.5, 1, 1.5, 2, and 3 μM were taken for both compounds (Fig. 3).
The assay of human type IIa topoisomerase mediated relaxation of supercoiled plasmid DNA was performed using reaction buffer (20 μl) (5 mM dithiothreitol, 0.5 M Tris–HCl, pH 8.0, 20 mM ATP, 1.50 M NaCl, 300 μg ml^−1 BSA, and 100 mM MgCl2) having supercoiled pHOT1 plasmid DNA (500 ng) and human type IIa topoisomerase enzyme (4 units). The reaction mixtures were incubated for 30 min at 37 °C, followed by adding 10% sodium dodecyl sulfate (2 μl) to stop the reaction. Added 0.5 mg ml^−1 proteinase K (1 μl) to the reaction mixture and allowed to incubate for 15 min at 37 °C. Then, added loading buffer, i.e., 0.25% bromophenol blue and 50% glycerol (1 μl) to the reaction mixture and run on 1% agarose gel electrophoresis using TAE buffer (1.14 ml acetic acid, and 0.37 g EDTA pH 8.1, and 100 ml of 10× stock solution–4.8 g of Tris base). The gel containing DNA was stained with ethidium bromide, washed, and photographed using UV light.

[7] = system: HeLa (cervix) human cancer cell line; assay: MTT cytotoxicity assay, HeLa; assay type: cell-based; conditions: Homo sapiens, 48 h
Experimental: as §1

T1 sequence (P02768 25-609): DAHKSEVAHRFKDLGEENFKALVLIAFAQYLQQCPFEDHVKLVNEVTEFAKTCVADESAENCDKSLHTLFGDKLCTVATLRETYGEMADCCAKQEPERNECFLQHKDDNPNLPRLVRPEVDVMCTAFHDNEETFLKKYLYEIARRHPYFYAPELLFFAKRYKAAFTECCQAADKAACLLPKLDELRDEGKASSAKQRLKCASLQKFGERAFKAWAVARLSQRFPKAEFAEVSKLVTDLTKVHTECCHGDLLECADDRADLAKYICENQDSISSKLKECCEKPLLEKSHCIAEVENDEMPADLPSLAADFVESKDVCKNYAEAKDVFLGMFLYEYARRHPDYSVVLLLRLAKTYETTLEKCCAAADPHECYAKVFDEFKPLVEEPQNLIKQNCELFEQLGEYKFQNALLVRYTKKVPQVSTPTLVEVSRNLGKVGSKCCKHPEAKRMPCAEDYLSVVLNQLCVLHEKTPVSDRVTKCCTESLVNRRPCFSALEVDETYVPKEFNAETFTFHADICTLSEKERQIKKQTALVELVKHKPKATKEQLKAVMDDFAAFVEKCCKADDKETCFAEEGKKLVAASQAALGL

τ 1 of HSA fluorescence decay ([1]; compound 7 μM) [ns]	τ 2 of HSA fluorescence decay ([1]; compound 7 μM) [ns]	α 1 of HSA fluorescence decay ([1]; compound 35 μM)	α 2 of HSA fluorescence decay ([1]; compound 35 μM)	α 3 of HSA fluorescence decay ([1]; compound 35 μM)	τ 1 of HSA fluorescence decay ([1]; compound 35 μM) [ns]	τ 2 of HSA fluorescence decay ([1]; compound 35 μM) [ns]	τ 3 of HSA fluorescence decay ([1]; compound 35 μM) [ns]	τ (average fluorescence lifetime of HSA) ([1]; compound 35 μM) [ns]	α 1 of HSA fluorescence decay ([1]; compound 70 μM)	α 2 of HSA fluorescence decay ([1]; compound 70 μM)	α 3 of HSA fluorescence decay ([1]; compound 70 μM)	τ 1 of HSA fluorescence decay ([1]; compound 70 μM) [ns]	τ 2 of HSA fluorescence decay ([1]; compound 70 μM) [ns]	τ 3 of HSA fluorescence decay ([1]; compound 70 μM) [ns]	τ (average fluorescence lifetime of HSA) ([1]; compound 70 μM) [ns]	enhancement in absorbance of HSA at 280 nm [2] [%]	Kd [2] [µM]	K SV (Stern–Volmer quenching constant) [4]	Compound	IC50 [3] [µM]	also measured
3.19	7.17	0.39	0.24	0.37	3.12	6.97	0.85	3.19	0.39	0.19	0.41	3.36	7.25	0.86	3.08	51	5.32	2.38 10^6 M^−1	C#CCN1C(=O)c2cccc3c(-c4ccc5c(c4)c(-c4nc6ccccc6s4)cn5CC=C)ccc(c23)C1=O [Compound 13, 6-(1-Allyl-3-(benzo[d]thiazol-2-yl)-1H-indol-5-yl)-2-(prop-2-yn-1-yl)-1H-benzo[de]isoquinoline-1,3(2H)-dione]	3.49 ± 0.12	K q (bimolecular quenching rate constant) [4]: 2.38 10^14 M^−1 s^−1; n (average number of binding sites) [4]: 1.07; ΔG of HSA binding [4]: -7.93 kJ/M; α 1 of HSA fluorescence decay [5]: 0.41; α 2 of HSA fluorescence decay [5]: 0.23; α 3 of HSA fluorescence decay [5]: 0.36; τ 3 of HSA fluorescence decay [5]: 0.84 ns; τ (average fluorescence lifetime of HSA) [5]: 3.25 ns; melting point: 282 to 285 °C; inhibition of topoisomerase II relaxation ([6]; 1 μM): partially inhibitor; inhibition of topoisomerase II relaxation ([6]; 5, 10 and 50 μM): significant and active inhibitors; IC50 [7]: 3.64 ± 0.19 µM
3.29	7.32	0.41	0.18	0.40	3.37	7.34	0.86	3.09	0.39	0.20	0.41	3.14	7.03	0.80	2.97	57	5.71	5.19 10^6 M^−1	C=CCn1cc(-c2nc3ccccc3s2)c2cc(-c3ccc4c5c(cccc35)C(=O)N(CCO)C4=O)ccc21 [Compound 12, 6-(1-Allyl-3-(benzo[d]thiazol-2-yl)-1H-indol-5-yl)-2-(2-hydroxyethyl)-1H-benzo[de]isoquinoline-1,3(2H)-dione]	3.81 ± 0.19	K q (bimolecular quenching rate constant) [4]: 5.19 10^14 M^−1 s^−1; n (average number of binding sites) [4]: 1.17; ΔG of HSA binding [4]: -8.87 kJ/M; α 1 of HSA fluorescence decay [5]: 0.42; α 2 of HSA fluorescence decay [5]: 0.20; α 3 of HSA fluorescence decay [5]: 0.38; τ 3 of HSA fluorescence decay [5]: 0.80 ns; τ (average fluorescence lifetime of HSA) [5]: 3.13 ns; melting point: 292 to 295 °C; inhibition of topoisomerase II relaxation ([6]; 1 μM): partially inhibitor; inhibition of topoisomerase II relaxation ([6]; 5, 10 and 50 μM): significant and active inhibitors; IC50 [7]: 3.76 ± 0.2 µM

Reference: publication PMC8694140, “Synthesis and photobiological applications of naphthalimide–benzothiazole conjugates: cytotoxicity and topoisomerase IIα inhibition” (RSC Advances, 2021)
